The record followed here is ChEMBL document CHEMBL1667782, “Glucose-lowering activity of novel tetrasaccharide glyceroglycolipids from the fruits of Cucurbita moschata” (2011).

Molecules are shown by their SMILES.

Format in all cases: functional
Settings in all cases: route intraperitoneal

In test [1] the test system is Mus musculus. The test is described as follows: Antidiabetic activity in streptozotocin-induced C57/BL6J mouse diabetic model assessed as serum glucose level at 50 mg/kg, ip after 14 days (reference value: 22.17 +/- 5.63 mmol/L).
For test [2], the system named is Mus musculus. The test is described as follows: Antidiabetic activity in streptozotocin-induced C57/BL6J mouse diabetic model assessed as serum glucose level at 50 mg/kg, ip after 21 days (reference value: 23.89 +/- 6.98 mmol/L).
For test [3], the system named is Mus musculus. The test is described as follows: Antidiabetic activity in streptozotocin-induced C57/BL6J mouse diabetic model assessed as serum glucose level at 50 mg/kg, ip after 28 days (reference value: 23.77 +/- 6.12 mmol/L).
Test [4] concerns Mus musculus. The test is described as follows: Antidiabetic activity in streptozotocin-induced C57/BL6J mouse diabetic model assessed as serum glucose level at 50 mg/kg, ip after 7 days (reference value: 22.65 +/- 6.16 mmol/L).

On to `CC/C=C\C/C=C\C/C=C\CCCCCCCC(=O)OCC(O)CO[C@@H]1O[C@H](CO[C@@H]2O[C@H](CO[C@@H]3O[C@H](CO[C@@H]4O[C@H](CO)[C@H](O)[C@H](O)[C@H]4O)[C@H](O)[C@H](O)[C@H]3O)[C@H](O)[C@H](O)[C@H]2O)[C@H](O)[C@H](O)[C@H]1O` (stereo partly drawn), for which the Activity is recorded as 18.27 mmol/L in the test on Mus musculus [1], 16.36 mmol/L with Mus musculus [2], 14.61 mmol/L in the test on Mus musculus [3] and 20.89 mmol/L in the test with Mus musculus [4].
The corresponding values for `CCCCC/C=C\C/C=C\CCCCCCCC(=O)OCC(O)CO[C@@H]1O[C@H](CO[C@@H]2O[C@H](CO[C@@H]3O[C@H](CO[C@@H]4O[C@H](CO)[C@H](O)[C@H](O)[C@H]4O)[C@H](O)[C@H](O)[C@H]3O)[C@H](O)[C@H](O)[C@H]2O)[C@H](O)[C@H](O)[C@H]1O` (stereo partly drawn) are 19.09 mmol/L, 18.17 mmol/L, 15.73 mmol/L and 21.47 mmol/L.
